Where only a bound is given, the exact number is not on record here.

One assay relates to IL-1β production in PMA-differentiated THP-1 cells. The experiment in a line: IL-1β production in PMA-differentiated THP-1 cells stimulated with gramicidin (hTHP-1 assay containing 2% fetal bovine serum). The format is cell-based, human. To be noted: Homo sapiens, THP-1, Table B1; 2% fetal bovine serum; cells printed as numeric bound; read-out: hTHP-1 IC50 (Average IC50 of compounds in hTHP-1 assay). The essentials: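 THP-1 cells were differentiated with PMA 20 ng/ml for 16-18 h, then plated at 50,000 cells/well in RPMI with 2% FBS. They were preincubated 1 h with compound (100–0.0017 μM final, 0.37% DMSO), then stimulated with gramicidin 5 μM for 2 h. Supernatant IL-1β was measured by HTRF.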
The IC50 is the midpoint of a concentration-inhibition curve. Consider `CC(C)(O)c1ncc(S(N)(=O)=NC(=O)Cc2cc3c(c4c2CCC4)CCC3)s1` (stereo not shown) [Example 242, N-(amino(2-(2-hydroxypropan-2-yl)thiazol-5-yl)(oxo)-λ^6-sulfaneylidene)-2-(1,2,3,6,7,8-hexahydro-as-indacen-4-yl)acetamide], for which the IC50 was more than 30000 nM. Same read-out and setting: the figure for `CC(C)c1cc2c(c(C(C)C)c1CC(=O)N=S(N)(=O)c1cnn3c1OCCC3)COC2` (single isomer, unassigned) [Example 309, (S) or (R)-N-(amino (6,7-dihydro-5H-pyrazolo[5,1-b][1,3]oxazin-3-yl)(oxo)-λ^6-sulfaneylidene)-2-(4,6-diisopropyl-1,3-dihydroisobenzofuran-5-yl)acetamide] is more than 30000 nM; for `CC(C)(O)c1ncc(S(N)(=O)=NC(=O)Cc2c3c(cc4c2CC4)CCC3)s1` [Example 224, (S)- and (R)—N-(amino(2-(2-hydroxypropan-2-yl)thiazol-5-yl)(oxo)-λ^6-sulfaneylidene)-2-(2,4,5,6-tetrahydro-1H-cyclobuta[f]inden-3-yl)acetamide] it is more than 30000 nM.

The same assay, now with this note: Homo sapiens, THP-1, Table B1; 2% fetal bovine serum; class symbols; read-out: hTHP-1 IC50 (Average IC50 of compounds in hTHP-1 assay).
For the molecule `CC(C)c1ccc(F)c(C(C)C)c1CC(=O)N=S(N)(=O)c1cnn2c1OCCC2` (stereo not shown) [Example 268, N-(amino(6,7-dihydro-5H-pyrazolo[5,1b][1,3]oxazin-3-yl)(oxo)-λ^6-sulfaneylidene)-2-(3-fluoro-2,6-diisopropylphenyl)acetamide], the IC50 lay within 1000 to 5000 nM. For `CC(C)c1ccc(F)c(C(C)C)c1CC(=O)N=S(N)(=O)c1ccc(C(C)(C)O)s1` (stereo not shown) [Example 125, N-(amino(5-(2-hydroxypropan-2-yl)thiophen-2-yl)(oxo)-λ^6-sulfaneylidene)-2-(3-fluoro-2,6-diisopropylphenyl)acetamide], the IC50 fell in the range of 200 to 1000 nM. On the same count and under the same terms, the figure for `CC(C)c1cc(COC2CCCC2)cc(C(C)C)c1CC(=O)N=S(N)(=O)c1cnc(C(C)(C)O)s1` (stereo not shown) [Example 141, N-(amino(2-(2-hydroxypropan-2-yl)thiazol-5-yl)(oxo)-λ^6-sulfaneylidene)-2-(4-((cyclopentyloxy)methyl)-2,6-diisopropylphenyl)acetamide] is 40 to 200 nM; for `NS(=O)(=NC(=O)Cc1c2c(cc3c1CCC3)CCC2)c1cnn2c1OCCC2` (single isomer, unassigned) [Example 270, (S) or (R)-N-(amino(6,7-dihydro-5H-pyrazolo[5,1-b][1,3]oxazin-3-yl)(oxo)-λ^6-sulfaneylidene)-2-(1,2,3,5,6,7-hexahydro-s-indacen-4-yl)acetamide] it is 5000 to 30000 nM; for `CC(C)c1cc2c(c(C(C)C)c1CC(=O)N=S(N)(=O)c1ccc(CN(C)C)cc1)COC2` (stereo not shown) [Example 134, N-(amino(4-((dimethylamino)methyl)phenyl)(oxo)-λ^6-sulfaneylidene)-2-(4,6-diisopropyl-1,3-dihydroisobenzofuran-5-yl) acetamide] it is 1000 to 5000 nM. As for `Cc1c2c(cc(C3CC3)c1CC(=O)N=[S@@](N)(=O)c1cnc(C(C)(C)O)s1)CCC2` [Example 233, (R)-N-(amino(2-(2-hydroxypropan-2-yl)thiazol-5-yl)(oxo)-λ^6-sulfaneylidene)-2-(6-cyclopropyl-4-methyl-2,3-dihydro-1H-inden-5-yl)acetamide], the IC50 is 5000 to 30000 nM. Still for that read-out and setting: next, `CC(C)c1cc(C#N)c(F)c(C(C)C)c1CC(=O)N=S(N)(=O)c1cc(C(C)(C)O)n(-c2ccccc2)n1` (stereo not shown) [Example 239, N-(amino(5-(2-hydroxypropan-2-yl)-1-phenyl-1H-pyrazol-3-yl)(oxo)-λ^6-sulfaneylidene)-2-(4-cyano-3-fluoro-2,6-diisopropylphenyl)acetamide]: 1000 to 5000 nM.

The assay is the same for the next values; noted with them: Homo sapiens, THP-1, Table B2; 2% fetal bovine serum; cells printed as numeric bound; read-out: hTHP-1 IC50 (Average IC50 of compounds in hTHP-1 assay).
On to `COc1ccc(C(C)(C)O)cc1S(N)(=O)=NC(=O)Cc1c(C(C)C)cc(C#N)cc1C(C)C` (racemic) [Example 388, (R) and (S)—N-(amino(5-(2-hydroxypropan-2-yl)-2-methoxyphenyl)(oxo)-λ^6-sulfaneylidene)-2-(4-cyano-2,6-diisopropylphenyl)acetamide], for which the half-maximal inhibitory concentration (IC50) is more than 30000 nM.

As to `CC(C)c1cc(C(F)F)cc(C(C)C)c1CC(=O)N=S(=O)(NC(=O)Cc1c(C(C)C)cc(C(F)F)cc1C(C)C)c1ccc(CN(C)C)nc1` (stereo not shown) [Example 390, 2-(4-(Difluoromethyl)-2,6-diisopropylphenyl)-N-((2-(4-(difluoromethyl)-2,6-diisopropylphenyl)acetamido)(6-((dimethylamino)methyl)pyridin-3-yl)(oxo)-λ^6-sulfaneylidene)acetamide], the IC50 was more than 30000 nM.

Staying with this assay, now noted: Homo sapiens, THP-1, Table B2; 2% fetal bovine serum; class symbols; read-out: hTHP-1 IC50 (Average IC50 of compounds in hTHP-1 assay).
On to `CC(C)c1nc(C(F)(F)F)nc(C(C)C)c1CC(=O)N=S(N)(=O)c1cnc(C(C)(C)O)s1` (single isomer, unassigned) [Example 396, (S) or (R)-N-(amino(2-(2-hydroxypropan-2-yl)thiazol-5-yl)(oxo)-λ^6-sulfaneylidene)-2-(4,6-diisopropyl-2-(trifluoromethyl)pyrimidin-5-yl)acetamide], for which the concentration for half-maximal inhibition (IC50) was 1000 to 5000 nM.

The same assay, now with this note: Table B1; 2% fetal bovine serum; class symbols; read-out: hTHP-1 IC50 (Average IC50 of compounds in hTHP-1 assay).
Turning to `CC(C)c1ccc(F)c(C(C)C)c1CC(=O)N=S(N)(=O)c1ccc(C(C)(C)O)s1` (single isomer, unassigned) [Example 175, (S) or (R)-N-(amino(5-(2-hydroxypropan-2-yl)thiophen-2-yl)(oxo)-λ^6-sulfaneylidene)-2-(3-fluoro-2,6-diisopropylphenyl) acetamide], the IC50 was 1000 to 5000 nM. Same read-out and setting: next, `CC(C)c1ccc(F)c(C(C)C)c1CC(=O)N=S(N)(=O)c1cnn2c1OCCC2` (single isomer, unassigned) [Example 312, (R) or (S)-N-(amino (6,7-dihydro-5H-pyrazolo[5,1-b][1,3]oxazin-3-yl)(oxo)-λ^6-sulfaneylidene)-2-(3-fluoro-2,6-diisopropylphenyl) acetamide]: 200 to 1000 nM. On the same count and under the same terms, next, `CC(C)c1ccc(F)c(C(C)C)c1CC(=O)N=S(N)(=O)c1nc(C(C)(C)O)cs1` (single isomer, unassigned) [Example 182, (S) or (R)-N-(amino(4-(2-hydroxypropan-2-yl)thiazol-2-yl)(oxo)-λ^6-sulfaneylidene)-2-(3-fluoro-2,6-diisopropylphenyl) acetamide]: 5000 to 30000 nM; `CC(C)c1cc(-c2ccc3c(c2)CCOC3)cc(C(C)C)c1CC(=O)N=S(N)(=O)c1sc(C(C)(C)O)nc1CO` (single isomer, unassigned) [Example 272, (S) or (R)-N-(amino(4-(hydroxymethyl)-2-(2-hydroxypropan-2-yl)thiazol-5-yl)(oxo)-λ^6-sulfaneylidene)-2-(4-(isochroman-6-yl)-2,6-diisopropylphenyl) acetamide]: 5000 to 30000 nM; `CC(C)c1cc(Cl)c(F)c(C2CC2)c1CC(=O)N=S(N)(=O)c1sc(C(C)(C)O)cc1F` (stereo not shown) [Example 20, 2-(4-chloro-2-cyclopropyl-3-fluoro-6-isopropylphenyl)-N-(3-fluoro-5-(2-hydroxypropan-2-yl)thiophen-2-ylsulfonimidoyl)acetamide]: 200 to 1000 nM. For the molecule `CC(C)c1ccc(F)c(C(C)C)c1CC(=O)N=S(N)(=O)c1ccc(C(C)(C)O)s1` (single isomer, unassigned) [Example 176, (R) or (S)-N-(amino(5-(2-hydroxypropan-2-yl)thiophen-2-yl)(oxo)-λ^6-sulfaneylidene)-2-(3-fluoro-2,6-diisopropylphenyl) acetamide], the IC50 was 200 to 1000 nM.

Take `Cc1ccc(-c2cc(C(C)C)c(CC(=O)N=S(N)(=O)c3ncc(C(C)(C)O)s3)c(C(C)C)c2)cc1C` (single isomer, unassigned) [Example 167, (S) or (R)-N-(amino(5-(2-hydroxypropan-2-yl)thiazol-2-yl)(oxo)-λ^6-sulfaneylidene)-2-(3,5-diisopropyl-3′,4′-dimethyl-[1,1′-biphenyl]-4-yl)acetamide]: the IC50 is 1000 to 5000 nM. On the same count and under the same terms, the figure for `CC(C)c1cc(C#N)c(F)c(C(C)C)c1CC(=O)N=S(N)(=O)c1ncc(C(C)(C)O)s1` (single isomer, unassigned) [Example 42] is 40 to 200 nM; for `CC(C)c1cc(C#N)c(F)c(C(C)C)c1CC(=O)N=S(N)(=O)c1sc(C(C)(C)O)cc1F` (single isomer, unassigned) [Example 45, (R)- or (S)-2-(4-cyano-3-fluoro-2,6-diisopropylphenyl)-N-(3-fluoro-5-(2-hydroxypropan-2-yl)thiophen-2-ylsulfonimidoyl)acetamide] it is 1000 to 5000 nM; for `CC(C)c1cc(C#N)c(F)c(C(C)C)c1CC(=O)N=S(N)(=O)c1cnc(C(C)(O)CO)s1` (single isomer, unassigned) [Example 337, (S, R) or (R, R)-N-(amino(2-(1,2-dihydroxypropan-2-yl)thiazol-5-yl)(oxo)-λ^6-sulfaneylidene)-2-(4-cyano-3-fluoro-2,6-diisopropylphenyl) acetamide] it is 8 to 40 nM. Still for that read-out and setting: the figure for `CC(C)c1cc2c(c(C(C)C)c1CC(=O)N=S(N)(=O)c1cnc(C(C)(C)O)s1)COC2` (single isomer, unassigned) [Example 183, (R) or (S)-N-(amino(2-(2-hydroxypropan-2-yl)thiazol-5-yl)(oxo)-λ^6-sulfaneylidene)-2-(4,6-diisopropyl-1,3-dihydro-isobenzofuran-5-yl)acetamide] is 200 to 1000 nM. Regarding `CC(C)c1cc(C#N)c(F)c(C(C)C)c1CC(=O)N=S(N)(=O)c1sc(C(C)(C)O)cc1F` (single isomer, unassigned) [Example 44, (S)- or (R)-2-(4-cyano-3-fluoro-2,6-diisopropylphenyl)-N-(3-fluoro-5-(2-hydroxypropan-2-yl)thiophen-2-ylsulfonimidoyl)acetamide], the IC50 lay in the range of 40 to 200 nM.

Values taken from patent US20230059136A1, “THE COMPOUNDS AND COMPOSITIONS FOR TREATING CONDITIONS ASSOCIATED WITH NLRP ACTIVITY” (Novartis AG, priority 2018, published 2023).
